Measurements: US5935790A, “Method for detecting a predisposition to susceptibility to toxic effects of drugs and poisons” (Rutgers, The State University of New Jersey, priority 1997, dated 1999)
Like-named read-outs stand apart in the source and are kept apart here.

Assays:
arylsulfatase A (ASA) = arylsulfatase A (ASA) (Homo sapiens, UniProt P15289); details: fibroblasts
Procedure: FIG. 2. The effect of lead acetate on intracellular ASA enzymic activity in cultured human fibroblasts. Fibroblasts were grown in vitro as monolayer cultures in the absence or presence of different concentrations of lead acetate as described in the text. The cells were dissolved in buffer containing detergent and the enzymic activity of ASA and other lysosomal enzymes and protein concentration were determined. The data are expressed relative to the control and the s.e.m. at each concentration of lead is indicated.
The potential effect of lead on cellular levels of ASA was examined in an in vitro system employing human fibroblasts. […] Fibroblast cultures were derived from punch biopsies and maintained in glutamine/penicillin/streptomycin/fetal bovine serum supplemented EMEM or in the same supplemented medium containing 0.5. 5.0. or 20 μM lead acetate. These cultures were split every three cell cycles for a total of 6-12 cell divisions. Fibroblasts in logarithmic growth were washed with PBS and dissolved in 1 mL of PBS containing 0.1% Triton X-100. This suspension was centriftiged for 5 min at 12,000 ×g and the supernatant was employed for determination of ASA and arylsulfatase B (ASB) activities using p-nitrocatechol sulfate as described by Baum et al. [Clin. Chim. Acta 4:453-455 (1959)] and β-galactosidase [Poretz et al., supra]. Each assay was performed in triplicate, and the complete experiment was repeated three times on different occasions for evaluating the effect of lead on cellular levels of ASA.

partially purified ASA = partially purified ASA (Homo sapiens, UniProt P15289)
Chain of partially purified ASA (P15289 19-507): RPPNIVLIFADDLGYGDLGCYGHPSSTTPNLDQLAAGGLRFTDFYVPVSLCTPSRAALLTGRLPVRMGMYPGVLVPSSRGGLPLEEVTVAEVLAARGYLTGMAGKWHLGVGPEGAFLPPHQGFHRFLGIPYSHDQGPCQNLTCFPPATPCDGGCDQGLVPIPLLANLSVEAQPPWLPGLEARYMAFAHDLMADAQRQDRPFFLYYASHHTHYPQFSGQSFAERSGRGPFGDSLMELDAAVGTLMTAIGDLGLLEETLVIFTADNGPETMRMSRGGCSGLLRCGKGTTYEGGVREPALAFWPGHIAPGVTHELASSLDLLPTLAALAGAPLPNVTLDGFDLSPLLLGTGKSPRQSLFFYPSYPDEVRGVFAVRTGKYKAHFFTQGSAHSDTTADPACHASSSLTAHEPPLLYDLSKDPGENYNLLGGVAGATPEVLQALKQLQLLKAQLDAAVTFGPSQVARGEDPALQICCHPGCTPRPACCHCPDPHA
Procedure: FIG. 3. […] A preparation of partially purified human fibroblast ASA containing other lysosomal hydrolases was incubated for 1 hr at 4° C. in the presence of lead acetate as described in the text. ASA and other hydrolase enzymic activities were determined. The data are expressed relative to the control and the s.e.m at each concentration of lead is indicated.
(§1) The direct effect of lead on ASA activity was also studied. […] Human fibroblast ASA was enriched in a preparation of isolated lysosomal enzymes as described by Gorman and Poretz [J. Cell. Physiol. 131:158-164 (1987)]. Lead acetate in buffer was added to protein preparations containing approximately 2 units of ASA activity in a total volume of 2.0 ml and incubated at 4° C. A control lacking lead was also prepared in an identical fashion. Aliquots were removed at 30 min, 1 hr, 24 hr, and 48 hr and analyzed for ASA, β-galactosidase and β-hexosaminidaseactivities. Enzymic and protein analyses were performed in triplicate, and the complete experiment was repeated three times.

β-galactosidase = details: similar conditions as for ASA
Procedure: as §1

β-hexosaminidase = details: every concentration of metal studied
Procedure: as §1

ASA = details: daily i.p. 100 mg/kg body weight, cited from earlier work
isolated lysosomes = details: cited from earlier work
rat fibroblasts = details: lead nitrate in the growth medium; cited from earlier work

Chain of arylsulfatase A (ASA) (P15289 19-507): as above

Row | Compound | amount of ASA relative to control cells grown without lead (arylsulfatase A (ASA)) | reduction of cellular ASA activity (arylsulfatase A (ASA)) | reduction of cellular ASA specific activity (arylsulfatase A (ASA); 0.5 µM) | decrease of ASA lysosomal enzyme activity vs cells in normal medium (arylsulfatase A (ASA); 20 µM) | loss of ASA activity (partially purified ASA; 200 μM lead acetate, 4° C., p=0.045) | time of maximum effect on ASA activity (partially purified ASA; 4° C., unchanged up to 48 hr) | effect on partially purified ASA (partially purified ASA; 100-200 μM lead acetate) | effect on β-galactosidase activity (β-galactosidase) | effect on β-hexosaminidase activity (β-hexosaminidase) | reduction in ASA activity vs control animals (ASA; rat kidney) | reduction in ASA activity vs control animals (ASA; rat liver) | decrease in stability of the lysosome (isolated lysosomes) | facilitated calcium transport by isolated lysosomes (isolated lysosomes; lead as low as 300 μM, concentration dependent) | lysosomal membrane stability (rat fibroblasts)
1 | CC(=O)[O-].CC(=O)[O-].[Pb+2] [lead acetate] | ≥ 65% | 32-36% | 14% | 32-36% | 67% | 1 h | precipitation of the enzyme and loss of enzymic activity | no reduction | closely paralleled that for ASA activity | 20% | 55% | greater than 200 fold | markedly increased | –
2 | O=[N+]([O-])[O-].O=[N+]([O-])[O-].[Pb+2] [lead nitrate] | – | – | – | – | – | – | – | – | – | – | – | – | – | reduction in lysosomal membrane stability
